Results published in PubChem BioAssay (NCI).
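Dose response: 5 concentrations. Exposure: 48 h. Format: 96-well plates. Endpoint: linear interpolation; highest concentration if not reached. TGI: concentration producing complete growth inhibition.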

Tests used:
Test in all cases: NCI tumour cell line growth inhibition, 48 h
PC-3 prostate = test system: PC-3 prostate
HCC-2998 colon = test system: HCC-2998 colon
LOX IMVI melanoma = test system: LOX IMVI melanoma
MDA-MB-231 breast = test system: MDA-MB-231 breast
SNB-75 CNS = test system: SNB-75 CNS
NCI/ADR-RES ovarian = test system: NCI/ADR-RES ovarian
TK-10 renal = test system: TK-10 renal
NCI-H522 lung = test system: NCI-H522 lung
COLO 205 colon = test system: COLO 205 colon
BT-549 breast = test system: BT-549 breast
HL-60(TB) leukemia = test system: HL-60(TB) leukemia
HOP-92 NSCLC = test system: HOP-92 NSCLC
SNB-19 CNS = test system: SNB-19 CNS
SN12C renal = test system: SN12C renal
A498 renal = test system: A498 renal
MDA-N = test system: MDA-N
OVCAR-5 ovarian = test system: OVCAR-5 ovarian
RPMI-8226 leukemia = test system: RPMI-8226 leukemia
ACHN renal = test system: ACHN renal
SF-295 CNS = test system: SF-295 CNS
HCT-15 colon = test system: HCT-15 colon
HOP-62 NSCLC = test system: HOP-62 NSCLC
NCI-H226 lung = test system: NCI-H226 lung
SF-268 CNS = test system: SF-268 CNS
MALME-3M melanoma = test system: MALME-3M melanoma
OVCAR-3 ovarian = test system: OVCAR-3 ovarian
UACC-62 melanoma = test system: UACC-62 melanoma
U251 CNS = test system: U251 CNS
EKVX NSCLC = test system: EKVX NSCLC
SF-539 CNS = test system: SF-539 CNS
RXF 393 renal = test system: RXF 393 renal
SK-MEL-2 melanoma = test system: SK-MEL-2 melanoma
T-47D breast = test system: T-47D breast
786-0 renal = test system: 786-0 renal
HT29 colon = test system: HT29 colon
CAKI-1 renal = test system: CAKI-1 renal
A549 NSCLC = test system: A549 NSCLC
UACC-257 melanoma = test system: UACC-257 melanoma
SK-OV-3 ovarian = test system: SK-OV-3 ovarian
SK-MEL-28 melanoma = test system: SK-MEL-28 melanoma
UO-31 renal = test system: UO-31 renal
SK-MEL-5 melanoma = test system: SK-MEL-5 melanoma
OVCAR-8 ovarian = test system: OVCAR-8 ovarian
HCT-116 colon = test system: HCT-116 colon
MOLT-4 leukemia = test system: MOLT-4 leukemia
M14 melanoma = test system: M14 melanoma
IGROV1 ovarian = test system: IGROV1 ovarian
MDA-MB-435 = test system: MDA-MB-435
DU-145 prostate = test system: DU-145 prostate
KM12 colon = test system: KM12 colon
OVCAR-4 ovarian = test system: OVCAR-4 ovarian
NCI-H23 lung = test system: NCI-H23 lung
CCRF-CEM leukemia = test system: CCRF-CEM leukemia
HS 578T breast = test system: HS 578T breast
MCF7 breast = test system: MCF7 breast
SW-620 colon = test system: SW-620 colon
K-562 leukemia = test system: K-562 leukemia
SR leukemia = test system: SR leukemia
NCI-H460 lung = test system: NCI-H460 lung

Measured: TGI

CS[C@]12[C@@H]3C(=O)N(C)C(=O)[C@@H]3[C@](C)(C(=O)N1C)C(=O)N2c1ccccc1
> 100 µM: PC-3 prostate | HCC-2998 colon | LOX IMVI melanoma | MDA-MB-231 breast | SNB-75 CNS | NCI/ADR-RES ovarian | TK-10 renal | NCI-H522 lung | COLO 205 colon | BT-549 breast | HL-60(TB) leukemia | HOP-92 NSCLC | SNB-19 CNS | SN12C renal | A498 renal | MDA-N | OVCAR-5 ovarian | RPMI-8226 leukemia | ACHN renal | SF-295 CNS | HCT-15 colon | HOP-62 NSCLC | NCI-H226 lung | SF-268 CNS | MALME-3M melanoma | OVCAR-3 ovarian | UACC-62 melanoma | U251 CNS | EKVX NSCLC | SF-539 CNS | RXF 393 renal | SK-MEL-2 melanoma | T-47D breast | 786-0 renal | HT29 colon | CAKI-1 renal | A549 NSCLC | UACC-257 melanoma | SK-OV-3 ovarian | SK-MEL-28 melanoma | UO-31 renal | SK-MEL-5 melanoma | OVCAR-8 ovarian | HCT-116 colon | MOLT-4 leukemia | M14 melanoma | IGROV1 ovarian | MDA-MB-435 | DU-145 prostate | KM12 colon | OVCAR-4 ovarian | NCI-H23 lung | CCRF-CEM leukemia | HS 578T breast | MCF7 breast | SW-620 colon

Cc1ccc(S(=O)(=O)NC(=O)NC(CCCCN=C(N)N)C(=O)O)cc1 (stereo unspecified)
> 100 µM: PC-3 prostate | LOX IMVI melanoma | MDA-MB-231 breast | SNB-75 CNS | NCI/ADR-RES ovarian | TK-10 renal | NCI-H522 lung | COLO 205 colon | BT-549 breast | HL-60(TB) leukemia | HOP-92 NSCLC | SNB-19 CNS | SN12C renal | MDA-N | RPMI-8226 leukemia | ACHN renal | SF-295 CNS | HCT-15 colon | HOP-62 NSCLC | SF-268 CNS | MALME-3M melanoma | UACC-62 melanoma | U251 CNS | SF-539 CNS | RXF 393 renal | SK-MEL-2 melanoma | T-47D breast | 786-0 renal | K-562 leukemia | A549 NSCLC | UACC-257 melanoma | SK-OV-3 ovarian | SK-MEL-28 melanoma | UO-31 renal | SK-MEL-5 melanoma | SR leukemia | OVCAR-8 ovarian | HCT-116 colon | MOLT-4 leukemia | M14 melanoma | IGROV1 ovarian | DU-145 prostate | KM12 colon | OVCAR-4 ovarian | NCI-H23 lung | CCRF-CEM leukemia | HS 578T breast | NCI-H460 lung | MCF7 breast | SW-620 colon
